One assay concerns the target T1, C-RBD (Homo sapiens, UniProt P04049).
T1 construct: GST-tagged C-Raf-RBD (residues 50–134 of human C-Raf); GST (N, cleaved yes); made in house; host or cells: E. coli BL21 Star (DE3)pLysS
The assay can be described thus: Competitive fluorescence polarization, displacement of F-L5UR from C-RBD. The class given is binding. To be noted: F-L5UR (5 nM), C-RBD (200 nM), pH 7.4, 30 min, ~22 °C, n = 3.

The target of the next assay is GST-B-RBD (Homo sapiens, UniProt P15056). The assay can be described thus: Competitive fluorescence polarization, displacement of F-L5UR from GST-B-RBD. The following applies: competitive fluorescence polarization with F-L5UR; Fig. 2e: F-L5UR (10 nM), GST-B-RBD (15 µM); method: 5 nM F-L5UR, 200 nM RBD; pH 7.4; 30 min, ~22 °C; n = 3. The class given is binding.
In a further assay the target is T2, B-RBD (Homo sapiens, UniProt P15056).
T2 construct: GST-tagged B-Raf-RBD (residues 155–227 of human B-Raf); GST (N); made in house; host or cells: E. coli BL21 Star (DE3)pLysS
Kind of assay: QRET assay, Eu-L5URcore binding to B-RBD. To be noted: Eu-L5URcore (29 nM), B-RBD twofold dilutions, MT2 quencher, 10 mM HEPES pH 7.4, 10 mM NaCl, 30 min, ~22 °C, time-resolved luminescence, n = 2, read-out: IC50. Here is the method: The QRET assays were modified from our previously described quenching luminescence assays[69]–[71]. Ac-K-L5URcore was conjugated with nonadentate europium chelate, {2,2′,2′′,2’“-{[4′-(4’“-isothiocyanatophenyl)-2,2′,6′,2′′-terpyridine-6,6′′-diyl]bis(methylene-nitrilo)}tetrakis(acetate)}europium(III) (QRET Technologies, Finland) via the epsilon amine of the N-terminal lysine that was added to the L5UR-core peptide sequence and purified with analytical reverse-phase HPLC. The current homogeneous QRET binding assay is based on the quenching of non-bound Eu-K-L5URcore with MT2 quencher (QRET Technologies), while bound labeled peptide is luminescent. In the assay, purified B-RBD or Gal1 were twofold diluted in an assay buffer containing 10 mM HEPES pH 7.4 and 10 mM NaCl added in 5 μL to a white low-volume, round bottom 384-well plate. Eu-K-L5UR core peptide (29 nM), mixed with MT2 according to the manufacturer’s instructions in the assay buffer supplemented with 0.01% (v/v) Triton X-100, was added in 5 μL volume to wells, and incubated for 30 min at ~22 °C on a shaker. The luminescence was measured with Tecan Spark multimode microplate reader (Tecan, Austria) in time-resolved mode using λexcitation 340 ± 40 nm and λemission 620 ± 10 nm with 800 μs delay and 400 μs window times.

The test system of another assay is H-RasG12V nanoclustering. The assay can be described thus: H-RasG12V nanoclustering-BRET in HEK cells. Type of assay: cell-based, human. For orientation: BRET reads energy transfer from a luciferase to a nearby fluorophore.
In a further assay the test system is MIA PaCa-2 cells. The assay can be described thus: 2D cell viability (alamarBlue), MIA PaCa-2. The class given is cell-based, human. The following applies: 48 h treatment, n = 3. Background: The colour change of resazurin is a common sign of viable cells or microbes.
The next assay concerns Hs 578 T cells. Kind of assay: 2D cell viability (alamarBlue), Hs 578 T. To be noted: 48 h treatment, n = 3. The class given is cell-based, human.
Another assay concerns T24 cells. The assay can be described thus: 2D cell viability (alamarBlue), T24. Type of assay: cell-based, human. The following applies: 48 h treatment, n = 3.
In assay [1] the test system is Hs 578 T, T24, MIA PaCa-2, and HEK cells. Kind of assay: Drug sensitivity score DSS3 from viability data. The class given is cell-based, human. The following applies: 48 h; Fig. 6e. The procedure: The cells were seeded in low attachment, suspension cell culture 96-well plates (Greiner, #655185). About 2000 T24, MIA PaCa-2, and HEK cells and 5000 Hs 578 T cells were seeded per well in a 50 µL complete growth medium. 24 h later, the cells were treated with 50 µL 2× peptide diluted in the growth medium or 0.2% (v/v) of the positive control, benzethonium chloride stock at 100 mM in H2O (Sigma-Aldrich, #B8879). […] Using a CLARIOstar plate reader the fluorescence signal (λexcitation 560 ± 5 nm and λemission 590 ± 5 nm) was recorded. The florescence signal was normalized against the negative control, here DMSO in buffer, representing 100% viability. Additionally, the data was analyzed using Breeze 2.0 to determine a drug sensitivity score (DSS), a normalized area under the curve (AUC). Here we plot only one of the output values from the Breeze pipeline, the DSS3 value, which was calculated as DSS3=DSS2x2−x1/Cmax−Cmin where DSS2 is given by the equation DSS2=DSS1/loga
And DSS1 is given by the equation DSS1=AUC−t(x2−x1)/(100−t)(Cmax−Cmin)
After dose–response inhibition data fitting with a logistic function, the area under the curve (AUC) was determined. The activity threshold (t) was set to ≥10%. The maximum (Cmax) and minimum (Cmin) concentrations used for screening of the inhibitors, with Cmax = x2 and x1 concentration with minimal activity t. […]

The target in the next assay is Gal1/B-RBD (Homo sapiens, UniProt P15056). Kind of assay: Gal1/B-RBD BRET in HEK cells. The class given is cell-based.
Assay [2] deals with Hs 578 T cells (pERK, pAkt). Kind of assay: Immunoblot of EGF-induced pERK and pAkt in Hs 578 T. Type of assay: cell-based, human. The following applies: 1–20 µM, 2 h, EGF 200 ng/mL 10 min; HRAS-G12D; n = 3–8.
For another assay, the system named is T24 cells (pERK, pAkt). Type of assay: cell-based, human. The following applies: n = 3–8.
The next assay concerns HEK cells (pERK, pAkt). Type of assay: cell-based, human. To be noted: 2 h, EGF 200 ng/mL 10 min; n = 3–8.
Assay [3] relates to MIA PaCa-2 cells (pERK, pAkt). Kind of assay: Immunoblot of EGF-induced pERK and pAkt in MIA PaCa-2. To be noted: 2 h, EGF 200 ng/mL 10 min; KRAS-G12C; n = 3–8. Type of assay: cell-based, human. Background: A western blot detects proteins with antibodies after separation by electrophoresis.
For the next assay, the target named is RBD of Raf proteins. Also noted: method as in PMID 27087647. The following applies: direct binding; read-out: KD, Gal1 to RBD of Raf proteins; cited from earlier work.
For another assay, the system named is B-Raf. The assay can be described thus: Split-luciferase KinCon B-Raf biosensor. To be noted: expression 48 h, HEK cells; n = 3. Type of assay: cell-based. The procedure: HEK 293-EBNA cells were seeded in a 12-well plate (Greiner Bio-One, #665180) in 1 ml complete DMEM and grown for 24 h. The next day 0.5 µg of KinCon sensor plasmid pcDNA-RlucF1-BRAF-RlucF2 was transfected along with 0.1–0.5 µg of modulator plasmid encoding either SNAP-H-RasG12V or Gal1) using jetPRIME as per manufacturer protocol; pcDNA3.1(−) Thermo Fisher Scientific, #V79520) was used to buffer the total amount of plasmid load per well to 1 µg. After 48 h of expression cells were collected and washed in PBS. Cells from one well of the 12-well plate were resuspended in 200 µL of PBS and 2× 90 µL were pipetted into a white 96-well plate (Nunc, Thermo Fisher Scientific, #236108). Then coelenterazine h was added to a final concentration of 5 µM and the luminescence signal at 480 ± 10 nm was collected for 10 s. The basically background-free signal was normalized against the signal without modulator plasmid.

The next assay deals with A-RBD-D75A. The assay can be described thus: BRET-titration Gal1/A-RBD-D75A. To be noted: versus wild-type, n = 3. Type of assay: cell-based, human.
In another assay the target is Gal1. Also noted: method as in PMID 24569991, PMID 7890630. The following applies: dimerization; read-out: KD, Gal1 dimer; cited from earlier work.

Non-standard residues stand in square brackets, D forms with d. Residues, ends and D or L forms follow the SMILES beside them. AEEA = NCCOCCOCC(=O)O

Gal1/B-RBD, sequence (P15056 155-227): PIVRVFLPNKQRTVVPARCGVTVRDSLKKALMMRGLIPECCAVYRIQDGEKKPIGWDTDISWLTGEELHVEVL
GST-B-RBD, sequence (P15056 155-227): as above
T2 sequence (P15056 155-227): as above
Procedure for A-RBD-D75A: We employed the BRET2 system where RLuc8 and GFP2 luminophores were predominantly used as the donor and acceptor, respectively, with coelenterazine 400a as the substrate. A CLARIOstar plate reader from BMG Labtech was used for BRET and fluorescence intensity measurement. The BRET protocol was adapted as described by us[73].
In brief, 150,000–200,000 HEK293-EBNA cells were seeded per well of a 12-well plate and grown for 24 h in 1 mL of complete DMEM. The next day, the cells were transfected with ~1 µg of plasmid DNA per well using a 3 µL jetPRIME transfection reagent. For the donor saturation titration, 25 ng of the donor plasmid was transfected with an acceptor plasmid concentration ranging from 25 to 1000 ng. […]
First, the fluorescence intensity of GFP2 was measured (λexcitation 405 ± 10 nm and λemission 515 ± 10 nm), which is directly proportional to the acceptor expression (RFU). Then 10 µM of coelenterazine 400a (GoldBio, #C-320) was added to the cells, and BRET readings were recorded simultaneously at λemission 410 ± 40 nm (RLU) and 515 ± 15 nm (BRET signal). Emission intensity measured at 410 nm is directly proportional to the donor expression. The raw BRET ratio was calculated as the ratio of BRET signal/RLU. […] The relative expression was calculated as the ratio of RFU/RLU. […]

Broadly, the IC50 is the midpoint of a concentration-inhibition curve. On to `CC(=O)N[C@@H](CO)C(=O)N[C@@H](CCCNC(=N)N)C(=O)N[C@@H](CO)C(=O)N[C@@H](CO)C(=O)N[C@@H](CC(C)C)C(=O)N[C@@H](CCCNC(=N)N)C(=O)N[C@@H](CO)C(=O)N[C@@H](CCCNC(=N)N)C(=O)N[C@@H](Cc1c[nH]c2ccccc12)C(=O)NCC(=O)N[C@@H](CCCNC(=N)N)C(=O)N[C@@H](Cc1ccccc1)C(=O)N[C@@H](CC(C)C)C(=O)N[C@@H](CC(C)C)C(=O)N[C@@H](CCC(N)=O)C(=O)N[C@@H](CCCNC(=N)N)C(=O)NCC(=O)N[C@@H](CO)C(=O)N[C@@H](Cc1c[nH]c2ccccc12)C(=O)N[C@H](C(=O)NCC(=O)N1CCC[C@H]1C(=O)N[C@@H](CCCNC(=N)N)C(N)=O)[C@@H](C)O` [L5URcore] (Ac-SRSSLRSRWGRFLLQRGSWTGPR-NH2), for which the IC50 came out at 14 ± 6 µM on C-RBD and 41 ± 1 µM on GST-B-RBD. Further, the EC50 (B-RBD binding to Eu-L5URcore) on B-RBD came to 18 ± 1 µM.

Broadly, the EC50 is the concentration giving half of the maximal effect. A lower EC50 goes with greater potency. Turning to `CC(=O)NCC(=O)N[C@@H](CCCNC(=N)N)C(=O)N[C@@H](CCCCN)C(=O)N[C@@H](CCCCN)C(=O)N[C@@H](CCCNC(=N)N)C(=O)N[C@@H](CCCNC(=N)N)C(=O)N[C@@H](CCC(N)=O)C(=O)N[C@@H](CCCNC(=N)N)C(=O)N[C@@H](CCCNC(=N)N)C(=O)N[C@@H](CCCNC(=N)N)C(=O)N1CCC[C@H]1C(=O)N[C@@H](CCC(N)=O)C(=O)NCCOCCOCC(=O)N[C@@H](CO)C(=O)N[C@@H](CCCNC(=N)N)C(=O)N[C@@H](CO)C(=O)N[C@@H](CO)C(=O)N[C@@H](CC(C)C)C(=O)N[C@@H](CCCNC(=N)N)C(=O)N[C@@H](CO)C(=O)N[C@@H](CCCNC(=N)N)C(=O)N[C@@H](Cc1c[nH]c2ccccc12)C(=O)NCC(=O)N[C@@H](CCCNC(=N)N)C(=O)N[C@@H](Cc1ccccc1)C(=O)N[C@@H](CC(C)C)C(=O)N[C@@H](CC(C)C)C(=O)N[C@@H](CCC(N)=O)C(=O)N[C@@H](CCCNC(=N)N)C(=O)NCC(=O)N[C@@H](CO)C(=O)N[C@@H](Cc1c[nH]c2ccccc12)C(=O)N[C@H](C(=O)NCC(=O)N1CCC[C@H]1C(=O)N[C@@H](CCCNC(=N)N)C(N)=O)[C@@H](C)O` [TAT-L5URcore] (Ac-GRKKRRQRRRPQ[AEEA]SRSSLRSRWGRFLLQRGSWTGPR-NH2), in the assay on H-RasG12V nanoclustering (peptide added to HEK cells, 2 h incubation, 37 °C, donor:acceptor 1:5, 200 ng Gal1 plasmid, n = 3), the response was half-maximal at 19 ± 1 µM (EC50). The “proliferation/viability, MIA PaCa-2” value in the assay on MIA PaCa-2 cells was “this was also observed for KRAS-mutant MIA PaCa-2”. Also, in the assay with Hs 578 T cells, the “proliferation/viability, Hs 578 T” value was “specifically reduced by TAT-L5URcore”. The “proliferation/viability, T24” value in the assay with T24 cells is recorded as “specifically reduced by TAT-L5URcore”. Further, the “anti-proliferative effect (DSS3)” value in assay [1] is listed as “higher anti-proliferative effect of TAT-L5URcore as compared to TAT-mutL5URcore”. For the same compound, on Gal1/B-RBD, the EC50 was determined as 16 ± 1 µM. In [2], the “EGF-induced pAkt levels, Hs 578 T” value is on record as “reduced EGF-induced cellular pERK-and pAkt-levels in a dose-dependent manner” and the “EGF-induced pERK levels, Hs 578 T” value is recorded as “reduced EGF-induced cellular pERK-and pAkt-levels in a dose-dependent manner”. In the assay with T24 cells (pERK, pAkt), the “EGF-induced pAkt levels, T24” value is given as “reduced EGF-induced cellular pERK-and pAkt-levels in a dose-dependent manner” and the “EGF-induced pERK levels, T24” value is “reduced EGF-induced cellular pERK-and pAkt-levels in a dose-dependent manner”. In the assay with HEK cells (pERK, pAkt), the “pAkt levels, HEK” value is reported as “slightly induced by TAT-L5URcore, as were pAkt-levels” and the “pERK levels, HEK” value is recorded as “slightly induced”. Moreover, in [3], the “pAkt levels, MIA PaCa-2” value was “pAkt-levels were reduced at 20 µM” and the “pERK levels, MIA PaCa-2” value is recorded as “pERK remained unaffected”.

As a reminder, the Kd is the free concentration of one partner at which half of the binding sites on the other are occupied at equilibrium, for simple one-to-one binding. With “Gal1: galectin-1, H-Ras nanocluster scaffold”, the “effect of Gal1 expression on H-RasG12V nanoclustering-BRET” value with H-RasG12V nanoclustering (expression 48 h, donor:acceptor 1:5, n = 4) is “increased H-RasG12V nanoclustering-BRET in a dose-dependent manner”. The figures for the dissociation constant (Kd) at RBD of Raf proteins and at Gal1 were 0.106 ± 0.04 µM and 7 µM, respectively. The “luminescence signal of KinCon B-Raf biosensor” value in the assay with B-Raf is “likewise reduced the luminescence signal”. Further, the “BRETtop, Gal1/A-RBD-D75A” value in the assay with A-RBD-D75A is “significantly reduced”.

These data come from article PMC11233548 (Communications Biology, 2024).
